Where no end group is shown, it is not given here.

Common to all, as to type: cell-based
The subject of test [1] is Interleukin 6 (IL-6). Description: Interleukin-6 released from Adult Dermal Human Fibroblasts (LEGENDplex Human Inflammation Panel). The following applies: 4 days treatment, concentration not given (100 uM or 250 uM). Here is the method:
(§1) Adult Dermal Human Fibroblasts (Lot 2485, Passage 5, Cell Applications) were expanded and seeded into a 48-well plate at a density of 5,000 cells/well. Cells were grown in Eagle's Minimal Essential Medium (EMEM) supplemented with Fetal Bovine Serum (FBS) and Penicillin-Streptomycin. Cells attached overnight and then culture media was aspirated and replaced with media containing either 100 uM or 250 uM of Peptide I, Peptide II, or Peptide III. Cells were cultured for […] with treatment with renewal of treatment medium every other day with the exception of weekends. Media was collected at the end of the culture period. Inflammatory cytokines were quantified by running a LEGENDplex Human Inflammation Panel 1 13-plex (Catalogue #740809, Biolegend. Protein in the media supernatant was also quantified using the Pierce BCA Protein Assay Kit (Catalogue #23225, ThermoFisher). Microsoft Excel and GraphPad Prism were used for additional analysis and data presentation. The amounts of Interleukin 6 (IL-6) and Interleukin 8 (IL-8) released from the Adult Dermal Human Fibroblasts are shown below in Table 1 and graphically depicted in FIG. 1(a) (for IL-6) and FIG. 1(b) (for IL-8).

The test system of test [2] is Interleukin 8 (IL-8). Description: Interleukin-8 released from Adult Dermal Human Fibroblasts (LEGENDplex Human Inflammation Panel). The conditions noted are these: 4 days treatment, concentration not given (100 uM or 250 uM). Here is the method: as §1
The subject of test [3] is epidermal growth factor (EGF). Description: Epidermal growth factor generated by reconstructed human epidermis (LEGENDplex Human Growth Factor Panel). The conditions noted are these: 250 μM, 7 days, control = 1.00. Here is the method:
(§2) Reconstructed human epidermis (RHE) (EPISKIN/S/13, Episkin) was received and samples were prepared for use. Upon arrival, inserts containing the RHE were removed from the multi-plate and placed in a 12-well plate containing maintenance medium. Tissue serving as untreated control were placed in regular maintenance medium; treatment groups were placed in maintenance medium containing 250 uM of Peptide I, II, or III alone or in combination. Medium was aspirated and replaced every other day with the exception of weekends. RHE was cultured at air-liquid interface at 37C, 5% CO2 and saturated humidity for 7 days. Media was collected at the end of the culture period. Growth factors were quantified by running a LEGENDplex Human Growth Factor Panel (Catalogue #740809, Biolegend. Protein in the media supernatant was also quantified using the Pierce BCA Protein Assay Kit (Catalogue #741061, ThermoFisher). Microsoft Excel and GraphPad Prism were used for additional analysis and data presentation. The amounts of epidermal growth factor (EGF), hepatocyte growth factor (HGF), and transforming growth factor alpha (TGFa) generated by the RHE are shown below in Table 2 and graphically shown in FIG. 2(a) (for EGF) and FIG. 2(b) (for HGF), and FIG. 2(c) (for TGFa).

In test [4] the test system is hepatocyte growth factor (HGF). Description: Hepatocyte growth factor generated by reconstructed human epidermis (LEGENDplex Human Growth Factor Panel). The following applies: 250 μM, 7 days, control = 1.00. Here is the method: as §2
Test [5] concerns transforming growth factor alpha (TGFa). Description: Transforming growth factor alpha generated by reconstructed human epidermis (LEGENDplex Human Growth Factor Panel). The conditions noted are these: 250 μM, 7 days, control = 1.00. On the procedure: as §2
Test [6] has as its system Keratinocyte stem cells. Description: Holoclone count of keratinocyte stem cells. The conditions noted are these: 96 hours, control 24.80 ± 6.14. On the procedure:
Keratinocyte stem cells (Lot KSC870, Passage 2, Bioalternatives) were seeded in 96-well plates and cultured in Keratinocyte-SFM supplemented with Epidermal Growth Factor and Pituitary Extract. After 4 hours, media was replaced with that containing Peptide II or Peptide III, alone or in combination. Cells were incubated for 96 hours with treatment renewal after 24 hours. After 96 hours, the medium was removed, and cells were fixed with methanol at −20C. Cells were then stained for 10 minutes with a Papanicolaou solution and imaged. The number of holoclone clones were counted. Data was analyzed and plotted using GraphPad Prism. The holocolone count relative to control (normalized) is shown below in Table 3 for different concentrations of peptide II, Peptide III, and combinations of Peptide II and Peptide III.

Test [7] deals with Adult Dermal Human Fibroblasts. Description: Autophagic vacuoles in aged fibroblasts (Autophagy Assay Kit). The following applies: 7 days. More on the design: key: “↑” indicates and increase; “↓” indicates a decrease; “↔” indicates no change. On the procedure:
Adult Dermal Human Fibroblasts (Lot 2485, Passage 5, Cell Applications) were expanded and seeded into a 12-well glass bottom plate at a density of 10,000 cells/well. Cells were grown in Eagle's Minimal Essential Medium (EMEM) supplemented with Fetal Bovine Serum (FBS) and Penicillin-Streptomycin. Cells attached overnight and then culture media was aspirated and replaced with media containing either 100 uM or 250 uM of Peptide I, Peptide II, or Peptide III. Cells were cultured for 7 days with treatment with renewal of treatment medium every other day with the exception of weekends. On day 7, cells were stained and imaged for presence of autophagic vacuoles following the protocol in the Autophagy Assay Kit (ab139484, Abcam). The images were compared to determine whether the number of autophagic vacuoles increased, decreased, or remained unchanged. The results are reported below, in Table 4, where “↑” indicates and increase, “↓” indicates a decrease, and “↔” indicates no change.

Test [8] concerns Adult Dermal Human Fibroblasts. Description: Mitochondrial activity in aged fibroblasts (TMRE-Mitochondrial Membrane Potential Assay Kit). The following applies: 250 μM, 7 days, TMRE stain; control = 1.00. Here is the method: Adult Dermal Human Fibroblasts (Lot 2485, Passage 5, Cell Applications) were expanded and seeded into a 12-well glass bottom plate at a density of 10,000 cells/well. Cells were grown in Eagle's Minimal Essential Medium (EMEM) supplemented with Fetal Bovine Serum (FBS) and Penicillin-Streptomycin. Cells attached overnight and then culture media was aspirated and replaced with media containing either 100 uM or 250 uM of Peptide I, Peptide II, or Peptide III. Cells were cultured for 7 days with treatment with renewal of treatment medium every other day with the exception of weekends. On day 7, cells were stained with tetramethylrhodamine ethyl ester (TMRE) and imaged for mitochondrial activity following the protocol in the TMRE-Mitochondrial Membrane Potential Assay Kit (ab113852, Abcam). The active mitochondria (mean intensity normalized to control) were determined and are shown below, in Table 5.

For KVPPLLY [Peptide III], the “Pg IL-6/μg Protein” value in test [1] (first line of each peptide) turned out to be 291.73 ± 61.03 Pg/μg Protein; in test [1] (second line of each peptide), 333.61 ± 38.37 Pg/μg Protein. For the same substance, the “Pg IL-8/μg Protein” value in test [2] (first line of each peptide) turned out to be 31.14 ± 22.26 Pg/μg Protein; in test [2] (second line of each peptide), 32.58 ± 4.06 Pg/μg Protein. For the same substance, the “EGF/μg Protein” value in test [3] was 1.79 ± 0.28. Moreover, in test [4], the “HGF/μg Protein” value is listed as 1.01 ± 0.17. Further, the “TGFa/μg Protein” value in test [5] worked out at 1.93 ± 0.60. In addition, the results for the Holoclone count in test [6] (0.2 mM) and in test [6] (0.4 mM) were 27.40 ± 6.13 and 36.50 ± 5.97, respectively. Moreover, the “Autophagic Vacuoles Presence (Compared to Control)” value in test [7] (100 μM) is “↑”; in test [7] (250 μM) it was “↔”. Also, the “Active Mitochondria (Mean Intensity Normalized to Control)” value in test [8] amounted to 0.97 ± 0.15.
Consider TWLPLPR [Peptide I], for which the “Pg IL-6/μg Protein” value is recorded as 154.52 ± 32.33 Pg/μg Protein in test [1] (first line of each peptide) and 126.97 ± 29.10 Pg/μg Protein in test [1] (second line of each peptide). Besides, the entries for the “Pg IL-8/μg Protein” value in test [2] (first line of each peptide) and in test [2] (second line of each peptide) were 22.72 ± 6.45 Pg/μg Protein and 42.71 ± 11.29 Pg/μg Protein, respectively. In addition, in test [3], the “EGF/μg Protein” value is 1.58 ± 0.17. Also, the “HGF/μg Protein” value in test [4] was determined as 0.98 ± 0.20. Moreover, the “TGFa/μg Protein” value in test [5] is 1.37 ± 0.23. Further, the “Autophagic Vacuoles Presence (Compared to Control)” value in test [7] (100 μM) and in test [7] (250 μM) was “↑” each time. In addition, in test [8], the “Active Mitochondria (Mean Intensity Normalized to Control)” value stood at 1.158 ± 0.17.
For YVLLPSPK [Peptide II], the “Pg IL-6/μg Protein” value in test [1] (first line of each peptide) is 265.86 ± 58.08 Pg/μg Protein; in test [1] (second line of each peptide) it was 257.53 ± 38.82 Pg/μg Protein. Further, the “Pg IL-8/μg Protein” value is on record as 20.36 ± 5.39 Pg/μg Protein in test [2] (first line of each peptide) and 35.68 ± 11.37 Pg/μg Protein in test [2] (second line of each peptide). For the same substance, the “EGF/μg Protein” value in test [3] was found to be 1.23 ± 0.16. Also, the “HGF/μg Protein” value in test [4] amounted to 1.28 ± 0.25. The “TGFa/μg Protein” value in test [5] is 1.56 ± 0.29. For the same substance, the Holoclone count was found to be 27.60 ± 7.59 in test [6] (0.2 mM) and 34.30 ± 8.85 in test [6] (0.4 mM). Moreover, the “Autophagic Vacuoles Presence (Compared to Control)” value in test [7] (100 μM) and in test [7] (250 μM) was “↑” throughout. Besides, the “Active Mitochondria (Mean Intensity Normalized to Control)” value in test [8] came out at 1.00 ± 0.19.

Source of the values: patent publication US20250134794A1, “BIOACTIVE WALNUT PEPTIDES AND COMPOSITIONS FOR TOPICAL TREATMENT OF SKIN” (L'OREAL, priority 2023, published 2025).
